This note sets out measurements from patent publication US5874529A, “Conformationally constrained backbone cyclized peptide analogs” (Peptor Ltd., priority 1994, dated 1999).

Data set [1] deals with T1, Somatostatin Receptor (SSTR) Subtype SSTR 5 (Homo sapiens, UniProt P35346).
T1 construct: expressed in transfected cells; host or cells: CHO cells
Briefly: Inhibition of radioactive iodinated somatostatin (SRIF-14) binding, CHO cells expressing SSTR 5. Particulars: read-out: percent inhibition of radioactive iodinated somatostatin (SRIF-14) binding, SSTR 5; for inhibition at 1 µM: Conc. 10^-6 M; for inhibition at 0.1 µM: Conc. 10^-7 M; for inhibition at 0.01 µM: Conc. 10^-8 M. The source says:
(§1) The values presented are percent inhibition of radioactive iodinated somatostatin (SRIF-14) binding.

Data set [2] deals with T2, Somatostatin Receptor (SSTR) Subtype SSTR 2B (Homo sapiens, UniProt P30874).
T2 construct: expressed in transfected cells; host or cells: CHO cells
Briefly: Inhibition of radioactive iodinated somatostatin (SRIF-14) binding, CHO cells expressing SSTR 2B. Particulars: read-out: percent inhibition of radioactive iodinated somatostatin (SRIF-14) binding, SSTR 2B; for inhibition at 1 µM: Conc. 10^-6 M; for inhibition at 0.1 µM: Conc. 10^-7 M; for inhibition at 0.01 µM: Conc. 10^-8 M.
Description: as §1

Another data set addresses T3, bradykinin receptors (Rattus norvegicus, UniProt P25023).
T3 construct: PC 12 cells that express bradykinin receptors; endogenous in cells; host or cells: PC12 cells
T3 sequence (P25023 1-396): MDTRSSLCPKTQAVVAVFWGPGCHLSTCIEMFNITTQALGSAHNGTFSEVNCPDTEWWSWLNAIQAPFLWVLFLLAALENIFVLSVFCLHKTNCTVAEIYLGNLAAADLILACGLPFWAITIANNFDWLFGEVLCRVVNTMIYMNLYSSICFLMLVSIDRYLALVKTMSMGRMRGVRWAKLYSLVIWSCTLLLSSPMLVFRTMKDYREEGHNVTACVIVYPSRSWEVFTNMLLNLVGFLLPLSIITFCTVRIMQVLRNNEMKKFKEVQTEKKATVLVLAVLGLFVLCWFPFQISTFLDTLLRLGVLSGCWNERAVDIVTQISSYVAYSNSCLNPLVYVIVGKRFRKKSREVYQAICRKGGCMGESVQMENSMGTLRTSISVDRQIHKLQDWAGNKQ
Kind of data set: Bradykinin antagonist assay, (3H)dopamine release from PC 12 cells. In kind it is cell-based. The settings on record: At 10^-6 M; (3H)dopamine release from PC 12 cells stimulated by bradykinin. How it is done: Novel backbone cyclized peptide analogs of the present invention were assayed in vitro for bradykinin antagonist activity by protection of (^3 H) dopamine release from PC 12 cells that express bradykinin receptors. PC12 cells were grown in Dulbecco Modified Eagle's medium with high glucose, supplemented with 10% horse serum, 5% fetal calf serum, 130 units/ml penicillin and 0.1 mg/ml streptomycin. For experiments, cells were removed from the medium using 1 mmole EDTA and replated on collagen coated-12-well plates and assayed 24 hr later. Release of (^3 H)dopamine was determined as follows: cells were incubated for 1.5 hr at 37° C. with 0.5 ml of growth medium and […] (^3 H)DA (41 Ci/mmole) and […] pargyline followed by extensive washing with medium (3×1 ml) and release buffer consisting of (mM): 130 NaCl; 5 KCl; 25 NaHCO3; 1 NaH2 PO4; 10 glucose and 1.8 CaCl2. In a typical experiment, cells were incubated with 0.5 ml buffer for 5 consecutive incubation periods of 3 min each at 37° C. Spontaneous (^3 H)DA release was measured by collecting the medium released by the cells successively for the first 3 min period. Antagonists were added to the cells 3 min prior to stimulation (at the second period), and stimulation of (^3 H)DA release by 100 nmole of bradykinin are monitored during the 3 period by 60 mmole KCl. The remaining of the (^3 H)DA was extracted from the cells by over night incubation with 0.5 ml 0.1N HCl. (^3 H)DA release during each 3 min period was expressed as a % of the total (^3 H)DA content of the cells. Net evoked release was calculated from (^3 H)DA release during stimulation period after subtracting basal (^3 H)DA release in the preceding baseline period if not indicated otherwise.

A further data set has as its target T4, BK2 receptors (Cavia porcellus, UniProt O70526).
T4 construct: This tissue contains predominantly BK2 receptors; from tissue; host or cells: guinea-pig ileum, longitudinal muscle layer with adhering mesenteric plexus
T4 sequence (O70526 1-372): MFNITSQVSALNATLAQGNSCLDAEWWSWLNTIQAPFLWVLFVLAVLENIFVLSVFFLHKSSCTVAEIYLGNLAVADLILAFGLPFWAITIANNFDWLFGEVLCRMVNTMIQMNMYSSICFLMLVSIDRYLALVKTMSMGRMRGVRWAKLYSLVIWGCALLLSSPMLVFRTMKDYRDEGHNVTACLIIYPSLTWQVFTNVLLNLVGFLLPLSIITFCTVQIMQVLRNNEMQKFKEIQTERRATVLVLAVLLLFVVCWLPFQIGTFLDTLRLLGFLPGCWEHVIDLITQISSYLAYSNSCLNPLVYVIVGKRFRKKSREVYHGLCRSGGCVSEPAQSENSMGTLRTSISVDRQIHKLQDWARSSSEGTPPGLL
Kind of data set: Bradykinin antagonist assay, guinea-pig ileum contraction. On the procedure:
The ileum of the guinea-pig was selected as the preparation for the bioassay. This tissue contains predominantly BK2 receptors. The preparation consists of the longitudinal muscle layer with the adhering mesenteric plexus. The isolated preparation was kept in Krebs solution and contractions were measured with an isometric force transducer. […] Atropine (1 μM) was always present.

Data set [3] is described as follows: In vitro biostability in human serum. Particulars: 37° C., HPLC determination of peptide degradation over time, compared with PTR 3001, octreotide, SRIF. It counts as in vitro ADME. On the procedure:
The in vitro biostability of a SST cyclic peptide analog, PTR 3002, was measured in human serum, and was compared to the same sequence in a non-cyclic peptide analog (PTR 3001), to octreotide (Sandostatin), and to native somatostatin (SRIF). […] The assay was based on HPLC determination of peptide degradation as a function of time at 37° C.

Data set [4] in a line: Lack of toxicity of cyclized peptide analogs in rats. It counts as in vivo. The source says: These two doses are several orders of magnitude higher than those needed to elicit the desired endocrine effect. The peptides dissolved in saline produced no untoward side effects on the central nervous system, cardiovascular system, body temperature, nor on the periphery of the animals.

Where [5] appears, read: At 10^-6 M, guinea-pig ileum, BK 2×10^-8 M, atropine 1 μM present.

Read-outs that look alike come from different tables or passages of the source. Numbered stars: 1 amine (or outer) side, 2 acyl side, 3 side chain; on linkers, the order of the positions; unused ones are H or OH. Bridge positions count the residues as written; N and C are the ends. Square brackets hold non-standard residues; d marks the D form. Peptide text beside a SMILES is read from it. NGly(3-aminopropyl) = O=C(CN(CCCN[*:3])[*:1])[*:2]; N(2-Aminoethyl)Gly = O=C(CN(CCN[*:3])[*:1])[*:2]; N(CH2CH2CO)Gly = O=C(CN(CCC(=O)[*:3])[*:1])[*:2]

T2 sequence (P30874 1-356 isoform P30874-2): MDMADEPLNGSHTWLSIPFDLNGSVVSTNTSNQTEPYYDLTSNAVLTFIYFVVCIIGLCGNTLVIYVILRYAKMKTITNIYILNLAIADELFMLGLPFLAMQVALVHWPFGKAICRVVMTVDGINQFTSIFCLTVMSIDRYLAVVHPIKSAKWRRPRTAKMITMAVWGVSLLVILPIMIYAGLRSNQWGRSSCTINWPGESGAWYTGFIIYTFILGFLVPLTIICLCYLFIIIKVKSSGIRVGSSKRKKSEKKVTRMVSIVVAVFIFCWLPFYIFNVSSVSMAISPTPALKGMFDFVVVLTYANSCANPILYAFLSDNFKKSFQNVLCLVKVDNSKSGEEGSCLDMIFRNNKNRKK
T1 sequence (P35346 whole entry): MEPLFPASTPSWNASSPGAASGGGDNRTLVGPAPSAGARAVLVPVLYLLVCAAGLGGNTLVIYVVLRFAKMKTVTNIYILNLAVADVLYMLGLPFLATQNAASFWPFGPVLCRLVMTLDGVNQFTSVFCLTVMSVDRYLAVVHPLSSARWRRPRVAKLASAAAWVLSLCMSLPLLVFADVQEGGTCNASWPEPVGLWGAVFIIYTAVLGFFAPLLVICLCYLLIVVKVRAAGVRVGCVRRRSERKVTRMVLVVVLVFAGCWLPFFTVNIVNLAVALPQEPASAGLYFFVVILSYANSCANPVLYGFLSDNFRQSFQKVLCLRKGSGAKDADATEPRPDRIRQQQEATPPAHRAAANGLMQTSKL

With `C[C@@H](O)[C@H](NC(=O)CN1CCC(=O)NCCCN(C(=O)[C@H](N)Cc2ccccc2)CC(=O)N[C@@H](Cc2ccccc2)C(=O)N[C@H](Cc2c[nH]c3ccccc23)C(=O)N[C@@H](CCCCN)C(=O)N[C@@H]([C@@H](C)O)C1=O)C(N)=O` [PTR 3010] (H-[dF][NGly(3-aminopropyl)]F[dW]KT[N(CH2CH2CO)Gly]T-NH2; lactam 2-7), in data set [1], the inhibition at 1 µM was 63%, the inhibition at 0.1 µM worked out at 26% and the inhibition at 0.01 µM was 9%. For the same compound, in data set [2], the inhibition at 1 µM amounted to 0%, the inhibition at 0.1 µM was found to be 0% and the inhibition at 0.01 µM is 0%.
As to `C[C@@H](O)[C@H](NC(=O)CNC(=O)[C@@H](NC(=O)[C@H](CCCCN)NC(=O)[C@@H](Cc1c[nH]c2ccccc12)NC(=O)[C@H](Cc1ccccc1)NC(=O)CNC(=O)[C@H](N)Cc1ccccc1)[C@@H](C)O)C(N)=O` [PTR 3003] (H-[dF]GF[dW]KTGT-NH2), in data set [1], the inhibition at 1 µM came to 55%, the inhibition at 0.1 µM turned out to be 20% and the inhibition at 0.01 µM worked out at 0%. Further, in data set [2], the inhibition at 1 µM was 16%, the inhibition at 0.1 µM was found to be 3% and the inhibition at 0.01 µM worked out at 0%.
As for “H-D-Arg-Arg-cyclo(N^α (4-propanoyl)Gly-Hyp-Phe-N^α (3-amido-propyl)-S-Phe)-Ser-D-Phe-Phe-Arg-OH [Example 4]”, the “inhibition of BK activity” value on bradykinin receptors and on BK2 receptors (setting [5]) was 17% each time.
`C[C@@H](O)[C@H](NC(=O)CN1CCCNC(=O)CN(C(=O)[C@H](N)Cc2ccccc2)CC(=O)N[C@@H](Cc2ccccc2)C(=O)N[C@H](Cc2c[nH]c3ccccc23)C(=O)N[C@@H](CCCCN)C(=O)N[C@@H]([C@@H](C)O)C1=O)C(N)=O` [PTR 3004]: in data set [1], the inhibition at 1 µM stood at 14%, the inhibition at 0.1 µM amounted to 0% and the inhibition at 0.01 µM was 0%. In addition, in data set [2], the inhibition at 1 µM is 0%, the inhibition at 0.1 µM came to 0% and the inhibition at 0.01 µM was determined as 0%.
As to `C[C@@H](O)[C@H](NC(=O)CN1CCNC(=O)CCN(C(=O)[C@H](N)Cc2ccccc2)CC(=O)N[C@@H](Cc2ccccc2)C(=O)N[C@H](Cc2c[nH]c3ccccc23)C(=O)N[C@@H](CCCCN)C(=O)N[C@@H]([C@@H](C)O)C1=O)C(N)=O` [PTR 3002] (H-[dF][N(CH2CH2CO)Gly]F[dW]KT[N(2-Aminoethyl)Gly]T-NH2; lactam 2-7), the “in vitro biostability in human serum” value in data set [3] is “as stable as octreotide, is more stable than the corresponding non-cyclic structure, and is much more stable than SRIF”.
On to “Ada-(D)Arg-Arg-cyclo(N^α (1-(6-aminohexylene)Gly-Hyp-Phe-D-Asp)-D-Phe-Phe-Arg-OH [Example 1]”, for which the “inhibition of BK activity” value worked out at 30% against bradykinin receptors and 24% on BK2 receptors.
Consider “H-D-Arg-Arg-cyclo(N^α (1-(4-propanoyl))Gly-Hyp-Phe-N^α (3-amido-propylene)Gly)-Ser-D-Phe-Phe-Arc-OH [Example 3]”, for which the “inhibition of BK activity” value on BK2 receptors (setting [5]) is on record as 10%.
For “Ada-D-Arg-Arg-N^α (6-acetamidohexylene)Gly-Hyp-Phe-D-Asp(NH-Me)-D-Phe-Phe-Arg-OH [Example 2]”, the “inhibition of BK activity” value against bradykinin receptors and at BK2 receptors (setting [5]) was 0% in each case.
For `C[C@@H](O)[C@H](NC(=O)CN1CCCNC(=O)CCN(C(=O)[C@H](N)Cc2ccccc2)CC(=O)N[C@@H](Cc2ccccc2)C(=O)N[C@H](Cc2c[nH]c3ccccc23)C(=O)N[C@@H](CCCCN)C(=O)N[C@@H]([C@@H](C)O)C1=O)C(N)=O` [PTR 3007] (H-[dF][N(CH2CH2CO)Gly]F[dW]KT[NGly(3-aminopropyl)]T-NH2; lactam 2-7), the “respiratory disturbances, stereotyped behavior, muscle tone” value in data set [4] (rats observed for 4 hours post administration) is reported as “produced no respiratory disturbances, did not result in the appearance of stereotyped behavior, or produce any changes in muscle tone”. Further, the tolerability entry in data set [4] (rats, 1.5 mg/kg, single intraperitoneal application) is recorded as “well tolerated”. Further, in data set [1], the inhibition at 1 µM was 19%, the inhibition at 0.1 µM was 9% and the inhibition at 0.01 µM came out at 0%. Further, in data set [2], the inhibition at 1 µM stood at 0%, the inhibition at 0.1 µM was determined as 0% and the inhibition at 0.01 µM amounted to 0%.
`NC(N)=NCCC[C@H](NC(=O)[C@H](Cc1ccccc1)NC(=O)[C@@H]1CCCN1C(=O)[C@H](CO)NC(=O)[C@H](Cc1ccccc1)NC(=O)CNC(=O)[C@@H]1CCCN1C(=O)[C@@H]1CCCN1C(=O)[C@@H](N)CCCN=C(N)N)C(=O)O` [BK, Arg^1 -Pro^2 -Pro^3 -Gly^4 -Phe^5 -Ser^6 -Pro^7 -Phe^8 -Arg^9, reference compound] (H-RPPGFSPFR-OH): at BK2 receptors, the EC50 worked out at 0.02 µM.

In general, inhibition refers to the drop in the measured response relative to a control, in per cent. What is called EC50 is the concentration needed to bring the measured effect to its halfway point. Read a low EC50 as a more potent agent.
